The values that follow come from US20080009448A1, “Peptide Derivative” (priority 2006, published 2008).

Non-standard residues stand in square brackets, D forms with d. No end group written: not given here. βAla = NCCC(=O)O

The subject of one series is male ddy mouse. Briefly: Evaluation of acute toxicity. The note with it: s.c.; for Number of mice died (out of five): within 72 to 96 hours. The protocol: Mice weighing in the range of 22 to 25 g, male ddy mouse, were employed. Number of mice out of five mice in each group that died within 72 to 96 hours recorded.
For series [1] the following is noted: non-patent references 2-7, cited from earlier work.

In the case of `CC(=N)N[C@@H](Cc1ccc(O)cc1)C(=O)N[C@H](CC[S+](C)[O-])C(=O)N[C@@H](Cc1ccccc1)C(=O)N(C)CCC(N)=O` (stereo partly drawn) [SS8225-04, Iminoethyl-[Tyr]-[D-Met(O)]-[Phe]-[N-MeβAla]-NH2], the “Lethality (%)” value came out at 0% in the series on male ddy mouse (dosage 6.25 mg/Kg (125 times the ED50)), 0% with male ddy mouse (dosage 25 mg/Kg (500 times the ED50)), 20% with male ddy mouse (dosage 50 mg/Kg (1000 times the ED50)) and 20% with male ddy mouse (dosage 100 mg/Kg (2000 times the ED50)). The “Number of mice died (out of five)” value in the series with male ddy mouse (dosage 6.25 mg/Kg) was found to be 0; in the series with male ddy mouse (dosage 25 mg/Kg), 0; in the series on male ddy mouse (dosage 50 mg/Kg) it was 1; in the series on male ddy mouse (dosage 100 mg/Kg), 1. Moreover, the acute toxicity result in the series with male ddy mouse (mice) is “satisfactorily low”.
For the compound “Nα-amidine-[Tyr]-[D-Arg]-[Phe]-[N-Methyl-β-Ala]-OH [ADAMB]”, in series [1], the “anti-nociceptive activity compared with morphine on oral administration” value was “about 3.8 times” and the “anti-nociceptive activity compared with morphine on subcutaneous administration” value is on record as “about 23 times”.
For Y[dR]F[βAla] [TAPA], in series [1], the “anti-nociceptive activity compared with morphine on oral administration” value is reported as “almost equal” and the “anti-nociceptive activity compared with morphine on subcutaneous administration” value was “nine times stronger”.
